Data as given in patent US12060432B2, “Combination therapies with anti-CD38 antibodies” (Janssen Biotech, Inc., priority 2014, dated 2024).

Assays:
[1] = system: ST1361 NHL-DLBCL (diffuse large B-cell lymphoma) PDX (patient derived xenograft) model; test: Patient-derived DLBCL xenograft ST1361: daratumumab alone or with CHOP or R-CHOP; type: in vivo, SCID/Beige mice; details: for % TGI (percent tumor growth inhibition): up to day 31, versus isotype control
Experimental: Resected DLBCL tumors were implanted in SCID/Beige mice. […] Daratumumab was administered at 20 mg/kg once a week for three weeks. CHOP and R-CHOP were administered once on day 0 except prednisone was administered on days 0-4 using the following regimens: CHOP: (cyclophosphoamide (CTX): 30 mg/kg i.v.; doxorubicin: 2.5 mg/kg i.v; vincristine: 0.4 mg/kg i.v); prednisone: 0.15 mg/kg p.o; R-CHOP: rituximab 20 mg/kg i.p. DAY 0. Tumor volume was measured every three days. The Y-axis represents tumor volume±SEM.
ST1361 is a NHL-DLBCL (diffuse large B-cell lymphoma) PDX (patient derived xenograft) model originating from a person chemo-naïve prior to metastatic sample collection.
Tumors were implanted in immunocompromised mice between 5-8 weeks of age. […] Daratumumab was dosed at 20 mg/kg once a week for 3 weeks. CHOP and R-CHOP at the concentrations described below were dosed once on day 0. CHOP (cyclophosphoamide: 30 mg/kg; doxorubicin: 2.5 mg/kg; vincristine: 0.4 mg/kg)-IV DAY 0; prednisone: 0.15 mg/kg DAYS 0-4; R-CHOP: rituximab 20 mg/kg-IP DAY 0. Beginning Day 0, tumor volume was measured twice weekly by digital caliper and data including individual and mean estimated tumor volumes (Mean TV±SEM) recorded for each group. The study was used to measure tumor growth inhibition until the control group was terminated and then continued as a survival study to evaluate the duration of daratumumab efficacy.
For the study, beginning Day 0, tumor dimensions were measured twice weekly by digital caliper and data including individual and mean estimated tumor volumes (mean TV±SEM) recorded for each group.

NAMALWA cells = test: NAMALWA model of Burkitt's lymphoma: daratumumab alone or with CHOP; type: in vivo, NOD SCID mice
Experimental: (§1) 2×10^5 NAMALWA cells in matrigel were implanted into NOD SCID mice and treatment initiated when the main tumor size reached approximately 189 mm^3. Daratumumab was administered at 10 mg/kg once a week for three weeks. CHOP was administered daily on days 0-5 using following doses: cyclophosphoamide (CTX): 5 mg/kg i.v.; doxorubicin: 0.5 mg/kg i.v; vincristine: 0.08 mg/kg i.v., prednisone: 0.03 mg/kg p.o. Tumor volume was measured every three days. The Y-axis represents tumor volume±SEM
As a model for Burkitt's lymphoma, NAMALWA cells were utilized to study the efficacy of daratumumab alone or in combination with CHOP.
Namalwa cells were maintained in vitro in RPMI 1640 medium supplemented with fetal bovine serum (10% v/v), and L-glutamine (2 mM) at 37° C. in an atmosphere of 5% CO2 in air. The cells were routinely subcultured twice weekly by trypsin-EDTA treatment. The cells growing in an exponential growth phase were harvested and counted for tumor inoculation. The mice were injected with 2×10^5 Namalwa cells in 0.1 ml of PBS with matrigel (1:1) subcutaneously and the treatments were started when the mean tumor size reached 189 mm^3. The date of tumor cell inoculation is denoted as day 0. The major endpoint was to see if the tumor growth can be delayed or tumor-bearing mice can be cured. Tumor sizes were measured twice weekly and % TGI values calculated as described in Example 1.
Animals were divided in four treatment groups and were administered vehicle (isotype control), daratumumab, CHOP or daratumumab in combination with CHOP at dosages as described in Table 2.

SU-DHL-6 cells = test: SU-DHL-6 cell line based NHL-DLBCL model: daratumumab alone or with CHOP; type: in vivo, NOD SCID mice
Experimental: as §1, with “5×10^6 SU-DHL-6” for “2×10^5 NAMALWA”, “cells” for “cells in matrigel”, “154” for “189”, “four” for “three”, “size” for “volume”, “plotted as Mean±SEM.” for “measured every three days. The Y-axis represents tumor volume±SEM”
SU-DHL-6 cell line based NHL-DLBCL model was utilized to study the efficacy of daratumumab alone or in combination with CHOP.
The SU-DHL-6 cells were maintained separately in vitro in RPMI1640 medium supplemented with 20% fetal bovine serum (v/v) at 37° C. in an atmosphere of 5% CO2 in air. The cells were routinely subcultured twice weekly. The cells growing in an exponential growth phase were harvested and counted for tumor inoculation. NOD SCID mice were γ-irradiated (200 rads) at 24 h before injection. Each mouse was inoculated subcutaneously at the right flank with SU-DHL-6 tumor cells (5×10^6) in 0.1 ml of PBS with matrigel (1:1) for tumor development. The treatments were started when the tumor size reaches approximately 154 mm^3. The date of tumor cell inoculation is denoted as day 0. Tumor sizes were measured twice weekly and % TGI values calculated as described in Example 1.
Animals were divided in four treatment groups and were administered vehicle, daratumumab, CHOP or daratumumab in combination with CHOP at dosages as described in Table 3.

Which “Mean tumor volume (mm^3) ± SEM” value ([1]; day 31, daratumumab 20 mg/kg once a week for 3 weeks, CHOP/R-CHOP once on day 0, prednisone days 0-4, day 0 volume 145-146 mm^3) does the source give for “Daratumumab: anti-CD38 antibody, IgG1/κ; VH SEQ ID NO: 4, VL SEQ ID NO: 5; heavy chain SEQ ID NO: 12, light chain SEQ ID NO: 13” here?
Its value is 744 ± 236 mm^3.

What about the “% TGI (percent tumor growth inhibition)” value [1] of the same substance?
Its value is 71%.

What about the “% TGI (percent tumor growth inhibition)” value ([1]; listed as daratumumab) of the same substance?
Its value is roughly 71%.

What about the Tumor growth delay (NAMALWA cells; at tumor size of 2,303 mm^3) of the same substance?
Its Tumor growth delay is 2 days.

And the T/C value (NAMALWA cells; day 26 post tumor inoculation)?
The T/C value was 70.46%.

And the “Antitumor activity in tumor size” value (NAMALWA cells; day 26 post tumor inoculation, versus vehicle)?
The value was “significant antitumor activity”.

What about the Mean tumor size (NAMALWA cells; day 26 post tumor inoculation, daratumumab 10 mg/kg QW x 3, CHOP QD x 5) of the same substance?
The Mean tumor size was 3,017 mm^3.

What about the Tumor growth delay (SU-DHL-6 cells; at tumor size of 1,500 mm^3) of the same substance?
Its Tumor growth delay is 3 days.

What about the T/C value (SU-DHL-6 cells; day 32 post tumor inoculation) of the same substance?
The T/C value was 45.45%.

And the “Antitumor activity in tumor size” value (SU-DHL-6 cells; day 32 post tumor inoculation, versus vehicle)?
The value was “significant antitumor activity”.

What about the Mean tumor size (SU-DHL-6 cells; day 32 post tumor inoculation, daratumumab 10 mg/kg QW x 4, CHOP QD x 5) of the same substance?
The Mean tumor size was 1,946 mm^3.
